pIC50: −log10 of the molar value.
What was measured:
ABCG2 = target: T1, ABCG2 (Homo sapiens, UniProt Q9UNQ0); assay: mitoxantrone accumulation assay (flow cytometry) in MDCKII-ABCG2 cells; assay type: cell-based; conditions: 1 µM mitoxantrone, 1 h, read-out: IC50, inhibition of ABCG2 (mitoxantrone accumulation)
T1 construct: expressed in transfected cells; host or cells: MDCKII-ABCG2 (from Dr. Alfred Schinkel, The Netherlands Cancer Institute)
T1 sequence (Q9UNQ0 1-655): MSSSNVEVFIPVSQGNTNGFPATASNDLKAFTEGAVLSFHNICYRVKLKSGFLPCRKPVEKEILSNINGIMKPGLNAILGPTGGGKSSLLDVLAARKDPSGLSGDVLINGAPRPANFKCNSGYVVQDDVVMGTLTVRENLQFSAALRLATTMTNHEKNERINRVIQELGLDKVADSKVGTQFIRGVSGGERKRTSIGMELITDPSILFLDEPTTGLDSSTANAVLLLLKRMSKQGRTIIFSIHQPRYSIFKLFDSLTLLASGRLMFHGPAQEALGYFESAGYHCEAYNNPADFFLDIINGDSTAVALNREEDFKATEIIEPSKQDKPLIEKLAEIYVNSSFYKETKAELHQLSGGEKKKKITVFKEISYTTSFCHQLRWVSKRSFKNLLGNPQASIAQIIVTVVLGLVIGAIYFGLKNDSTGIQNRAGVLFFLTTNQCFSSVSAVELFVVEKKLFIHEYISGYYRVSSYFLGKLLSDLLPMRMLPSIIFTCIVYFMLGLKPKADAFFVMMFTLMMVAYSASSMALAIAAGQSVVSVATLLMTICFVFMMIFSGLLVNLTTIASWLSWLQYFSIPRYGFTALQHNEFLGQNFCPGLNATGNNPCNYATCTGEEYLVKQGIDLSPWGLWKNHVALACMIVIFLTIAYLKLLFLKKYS
Method: (§1) The flow-cytometric inhibitory assay with daunorubicin and mitoxantrone was performed with minor modifications as described previously. MDCKII-par, MDCKII-ABCB1, MDCKII-ABCG2, and MDCKII-ABCC1 cell lines were seeded at densities of 22.0 × 10^4, 15.0 × 10^4, 25.0 × 10^4, and 22.0 × 10^4 cells/well, respectively, on a 12-well plate and then incubated for 24 h to reach approximately 70–80% confluence. Further steps including cell washing, the preparation of drug/model inhibitor dilutions, and their addition to cells were performed as described above. After the 10 min pre-incubation period, 2 µM daunorubicin (a substrate of ABCB1/ABCC1) or 1 µM mitoxantrone (ABCG2 substrate) were promptly added to all wells other than those containing background samples, then the plate was incubated for 1 h under standard conditions. The plates were subsequently placed on ice, the cells were washed twice with ice-cold 1× PBS, and 10× trypsin without phenol red was added. After complete trypsinization, the cells were vigorously resuspended in ice-cold 1× PBS containing 2% FBS. Samples were then transferred into test-tubes and kept on ice until their fluorescence could be measured using a flow cytometer (BD FACSCanto II, Allschwil, Switzerland). The excitation/emission wavelengths for daunorubicin and mitoxantrone were 490/565 and 640/670 nm, respectively.

ABCC1 = target: T2, ABCC1 (Homo sapiens, UniProt P33527); assay: daunorubicin accumulation assay (flow cytometry) in MDCKII-ABCC1 cells; assay type: cell-based; conditions: 2 µM daunorubicin, 1 h, read-out: IC50, inhibition of daunorubicin efflux by ABCC1
T2 construct: expressed in transfected cells; host or cells: MDCKII-ABCC1 (from Dr. Alfred Schinkel, The Netherlands Cancer Institute)
Method: as §1

CYP2C9 = target: T3, CYP2C9 (Homo sapiens, UniProt P11712); assay: Vivid CYP screening kit, recombinant CYP2C9; assay type: biochemical; conditions: recombinant enzyme, 15 min incubation, absolute IC50; read-out: CYP2C9 inhibition IC50
T3 construct: purchased Thermo Fisher Scientific; host or cells: insect microsomal fractions
Method: (§2) CYP inhibitory assay was performed as described previously. Experiments were performed with commercial Vivid CYP screening kits containing insect microsomal fractions enriched with a specific human CYP isoform, human CYP reductase, and in some cases, human cytochrome b5. The potential inhibitory activity of ensartinib toward CYP1A2, CYP2B6, CYP2C8, CYP2C9, CYP2C19, CYP2D6, CYP3A4, and CYP3A5 (i.e., all CYP isoforms that drug regulatory authorities recommend for testing of inhibition by new molecular entities) was then examined. Experiments were performed using a kinetic mode in black 96-well plates according to the manufacturer´s instructions. Briefly, 5-point serial dilutions of ensartinib or the model inhibitor recommended by the manufacturer in buffer were transferred into the wells, then a master mix consisting of a CYP isoenzyme with an NADPH regeneration system in buffer was added. After a 10 min pre-incubation, the reaction was initiated by adding a mixture of NADP^+ and the appropriate Vivid substrate, after which fluorescence was measured at 1 min intervals for 60 min using an Infinite M200 Pro microplate reader (Tecan, Männedorf, Switzerland). The enzyme concentration and incubation interval used for data evaluation (15 min) placed the systems within the linear regions of the appropriate reaction velocity curves. […]

CYP1A2 = target: T4, CYP1A2 (Homo sapiens, UniProt P05177); assay: Vivid CYP screening kit, recombinant CYP1A2; assay type: biochemical; conditions: recombinant enzyme
T4 construct: purchased Thermo Fisher Scientific; host or cells: insect microsomal fractions
Method: as §2

[1] = MTT proliferation / drug combination assay, MDCKII-ABCG2; assay type: cell-based, canine; conditions: dog, MDCKII-ABCG2 cells, 48 h, MTT, read-out: IC50, sensitivity to ensartinib
Method: (§3) MTT proliferation assay was performed as described previously.

MDCKII-ABCG2 cells = assay: as above; assay type: cell-based, canine
Method: as §3

HepG2-EV cells = assay: Docetaxel combination assay (MTT), HepG2-EV; assay type: cell-based, human; conditions: 1 µM docetaxel, <0% antagonism, =0% additivity, >0% synergism
Method: as §3
Cell viability was measured after a 48 h incubation using the MTT method as described above. […] Sensitization effects of < 0%, 0%, and >0% indicate antagonism, additivity, and synergism, respectively.

T4 sequence (P05177 2-516 limits assumed): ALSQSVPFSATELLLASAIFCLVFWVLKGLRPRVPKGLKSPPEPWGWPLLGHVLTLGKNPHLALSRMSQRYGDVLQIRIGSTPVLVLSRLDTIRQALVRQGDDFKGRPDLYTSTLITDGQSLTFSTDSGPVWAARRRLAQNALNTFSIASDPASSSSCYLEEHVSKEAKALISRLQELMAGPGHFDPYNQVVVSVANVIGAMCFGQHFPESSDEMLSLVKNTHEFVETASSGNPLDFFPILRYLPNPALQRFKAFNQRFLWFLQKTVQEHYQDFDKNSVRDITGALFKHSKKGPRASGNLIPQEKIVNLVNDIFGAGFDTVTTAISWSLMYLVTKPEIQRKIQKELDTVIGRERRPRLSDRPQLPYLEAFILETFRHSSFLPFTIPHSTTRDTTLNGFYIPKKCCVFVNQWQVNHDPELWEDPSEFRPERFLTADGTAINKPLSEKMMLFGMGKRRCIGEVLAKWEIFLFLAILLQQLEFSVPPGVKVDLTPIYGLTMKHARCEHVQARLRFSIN
T3 sequence (P11712 whole entry): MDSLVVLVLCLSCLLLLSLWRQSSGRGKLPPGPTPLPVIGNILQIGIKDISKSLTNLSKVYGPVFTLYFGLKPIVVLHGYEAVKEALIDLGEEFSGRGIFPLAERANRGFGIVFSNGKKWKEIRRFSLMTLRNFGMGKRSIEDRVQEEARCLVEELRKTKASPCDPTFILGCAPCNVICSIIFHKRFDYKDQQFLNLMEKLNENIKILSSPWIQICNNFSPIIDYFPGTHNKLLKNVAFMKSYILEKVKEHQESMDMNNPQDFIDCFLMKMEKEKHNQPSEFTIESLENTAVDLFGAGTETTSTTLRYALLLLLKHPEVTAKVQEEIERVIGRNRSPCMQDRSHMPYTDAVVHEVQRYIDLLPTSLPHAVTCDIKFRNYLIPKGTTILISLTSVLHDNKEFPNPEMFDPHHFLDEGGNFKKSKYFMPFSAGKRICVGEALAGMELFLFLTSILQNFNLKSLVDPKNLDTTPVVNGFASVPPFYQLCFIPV
T2 sequence (P33527 whole entry): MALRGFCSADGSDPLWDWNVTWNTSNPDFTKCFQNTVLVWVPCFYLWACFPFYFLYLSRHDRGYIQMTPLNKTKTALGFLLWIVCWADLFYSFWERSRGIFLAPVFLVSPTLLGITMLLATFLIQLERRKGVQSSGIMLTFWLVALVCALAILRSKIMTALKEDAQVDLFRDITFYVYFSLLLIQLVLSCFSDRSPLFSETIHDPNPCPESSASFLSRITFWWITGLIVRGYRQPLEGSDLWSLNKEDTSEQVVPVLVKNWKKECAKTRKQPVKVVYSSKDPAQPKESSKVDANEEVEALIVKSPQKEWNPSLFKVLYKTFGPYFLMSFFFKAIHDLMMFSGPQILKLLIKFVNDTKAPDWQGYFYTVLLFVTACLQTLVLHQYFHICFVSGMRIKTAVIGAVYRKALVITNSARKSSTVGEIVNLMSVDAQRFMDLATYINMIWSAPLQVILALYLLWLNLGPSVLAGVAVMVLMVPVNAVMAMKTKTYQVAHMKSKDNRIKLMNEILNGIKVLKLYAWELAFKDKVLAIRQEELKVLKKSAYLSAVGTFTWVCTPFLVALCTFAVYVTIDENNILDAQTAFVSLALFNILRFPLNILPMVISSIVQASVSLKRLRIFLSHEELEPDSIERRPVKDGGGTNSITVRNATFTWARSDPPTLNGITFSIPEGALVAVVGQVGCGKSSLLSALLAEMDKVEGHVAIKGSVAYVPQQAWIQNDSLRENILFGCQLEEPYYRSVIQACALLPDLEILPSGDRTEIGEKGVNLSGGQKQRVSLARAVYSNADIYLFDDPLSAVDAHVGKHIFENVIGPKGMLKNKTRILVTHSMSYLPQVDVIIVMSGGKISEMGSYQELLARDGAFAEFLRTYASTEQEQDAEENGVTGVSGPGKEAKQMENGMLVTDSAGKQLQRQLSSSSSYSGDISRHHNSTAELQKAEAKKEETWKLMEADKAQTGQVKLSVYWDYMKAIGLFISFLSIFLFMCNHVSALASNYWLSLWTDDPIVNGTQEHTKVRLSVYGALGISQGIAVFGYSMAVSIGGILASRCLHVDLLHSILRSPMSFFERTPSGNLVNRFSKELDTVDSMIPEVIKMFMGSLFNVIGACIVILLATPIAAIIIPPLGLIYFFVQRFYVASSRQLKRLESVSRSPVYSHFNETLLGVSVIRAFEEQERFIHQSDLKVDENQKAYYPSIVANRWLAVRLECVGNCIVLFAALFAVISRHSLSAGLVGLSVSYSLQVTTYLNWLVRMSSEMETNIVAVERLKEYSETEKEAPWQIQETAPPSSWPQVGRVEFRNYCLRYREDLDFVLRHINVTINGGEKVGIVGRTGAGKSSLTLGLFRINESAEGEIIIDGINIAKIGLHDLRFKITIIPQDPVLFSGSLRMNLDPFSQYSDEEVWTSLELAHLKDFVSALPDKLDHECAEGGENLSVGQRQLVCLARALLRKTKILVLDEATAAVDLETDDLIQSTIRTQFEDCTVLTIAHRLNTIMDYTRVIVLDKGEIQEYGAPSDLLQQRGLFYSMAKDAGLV

- pIC50 (ABCC1): < 4.30
- pIC50 (CYP2C9): 5.31
- inhibitory effect on CYP1A2 (in words) (CYP1A2): no appreciable inhibitory effect
- pIC50 (CYP1A2; 15 min incubation, absolute IC50, read-out: CYP1A2 inhibition IC50): < 4.30
Structure (SMILES): C[C@@H]1CN(C(=O)c2ccc(NC(=O)c3cc(O[C@H](C)c4c(Cl)ccc(F)c4Cl)c(N)nn3)cc2)C[C@H](C)N1 [ensartinib, Ensartinib]
- pIC50 (ABCG2): 4.55
- IC50 at 48 h [1]: 23.3 µM
- combination effect (Chou-Talalay combination index) (MDCKII-ABCG2 cells; 10 µM ensartinib with mitoxantrone): synergistic (synergistic (CI < 0.9))
- RR (reversal ratio) (MDCKII-ABCG2 cells; mitoxantrone, IC50 single drug / IC50 combined with 10 µM ensartinib): 6.16
- sensitization effect of combination with docetaxel (HepG2-EV cells): antagonistic

Source: PMC7226045, “Ensartinib (X-396) Effectively Modulates Pharmacokinetic Resistance Mediated by ABCB1 and ABCG2 Drug Efflux Transporters and CYP3A4 Biotransformation Enzyme” (Cancers, 2020)
